Tests used:
Experiment in all cases: biochemical
Format in all cases: binding
HLA-DR DRB1*0101 (DR1) = HLA-DR DRB1*0101 (DR1) (Homo sapiens, UniProt P01903+P01911, A100R/D57E/F55L/F60I/F76Y/I96L/L162R/M171V/P40L/Q125E/R42F/V115G/Y59C); details: DRB1 *0101
HLA-DR DRB1*0301 (DR3) = HLA-DR DRB1*0301 (DR3) (Homo sapiens, UniProt P01903+P01911, A100K/A102G/A103R/A169T/F55Y/I96L/K41T/L162R/M171V/P40S/Q125H/Q178H/Q39Y/R42S/S66N/T106N/T262R/W38E/Y61H)
HLA-DR DRB1*0701 (DR7) = HLA-DR DRB1*0701 (DR7) (Homo sapiens, UniProt P01903+P01911, A100R/A102G/A103Q/D57E/D86V/E43K/F76Y/K127E/L162R/M171V/P40G/Q125H/Q99D/R33Q/R42Y/R54Q/S133A/S66F/T210M/V115G/Y107V/Y59L/Y89S); details: DRB1 *0701
HLA-DR DRB1*0802 (DR8) = HLA-DR DRB1*0802 (DR8) (Homo sapiens, UniProt P01903+P01911, A100R/A103L/A169T/F76Y/H45Y/I96F/K41T/L162R/M171V/P40S/Q125H/Q178H/Q39Y/Q99D/R218S/R42G/S66Y/V115G/W38E)
HLA-DR DRB1*0901 (DR9) = HLA-DR DRB1*0901 (DR9) (Homo sapiens, UniProt P01903+P01911, A100R/A103E/D57H/D86V/F55Y/F60I/F76Y/I96F/K127E/L162R/M171V/P40D/Q125H/Q99R/R33Q/R42F/S133A/S66N/T210M/V115G/W38K/Y107V/Y59G/Y89S); details: DRB1 *0901
HLA-DR DRB1*1101 (DR11) = HLA-DR DRB1*1101 (DR11) (Homo sapiens, UniProt P01903+P01911, A100R/A169T/A87E/I96F/K41T/L162R/M171V/P40S/Q125H/Q178H/Q39Y/Q99D/R42S/S66Y/T262R/V115G/W38E); details: DRB1 *1101
HLA-DR DRB1*1302 (DR13) = HLA-DR DRB1*1302 (DR13) (Homo sapiens, UniProt P01903+P01911, A100E/A169T/K41T/L162R/M171V/P40S/Q125H/Q178H/Q39Y/Q99D/R42S/S66N/T262R/V115G/W38E/Y61H); details: DRBI *1302
HLA-DR DRB1*1501 (DR15) = HLA-DR DRB1*1501 (DR15) (Homo sapiens, UniProt P01903+P01911); details: DRBI *1501
HLA-DR DRB3*0101 (DR52) = HLA-DR DRB3*0101 (DR52) (Homo sapiens, UniProt P01903+P79483)
HLA-DR DRB4*0101 (DR53) = HLA-DR DRB4*0101 (DR53) (Homo sapiens, UniProt P01903+P13762, G164S); details: DRB4 *0101
HLA-DR DRB1*0401 (DR4) = HLA-DR DRB1*0401 (DR4) (Homo sapiens, UniProt P01903+P01911, A100K/A169T/F76Y/I96L/K127E/L162R/M171V/N62H/P40V/Q125Y/R42H/S133A/S149N/S66Y/V115G/V209L/W38E); details: DRB1 *0401
HLA-DR DRB5*0101 (DR51) = HLA-DR DRB5*0101 (DR51) (Homo sapiens, UniProt P01903+Q30154); details: DRB5 *0101

Chain of HLA-DR DRB1*1101 (DR11) (P01903 26-254 limits assumed, other chains not shown): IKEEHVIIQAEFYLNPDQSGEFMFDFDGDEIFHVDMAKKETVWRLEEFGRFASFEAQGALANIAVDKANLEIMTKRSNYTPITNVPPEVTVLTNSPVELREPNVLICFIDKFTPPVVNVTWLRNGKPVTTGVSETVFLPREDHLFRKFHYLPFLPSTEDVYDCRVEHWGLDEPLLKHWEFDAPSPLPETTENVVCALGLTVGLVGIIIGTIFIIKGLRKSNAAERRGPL
Chain of HLA-DR DRB1*0301 (DR3) (P01903 26-254 limits assumed, other chains not shown): as above
Chain of HLA-DR DRB1*1302 (DR13) (P01903 26-254 limits assumed, other chains not shown): as above

Row | Structure (SMILES) | IC50 (HLA-DR DRB1*0101 (DR1)) | IC50 (HLA-DR DRB1*0301 (DR3)) | IC50 (HLA-DR DRB1*0701 (DR7)) | IC50 (HLA-DR DRB1*0802 (DR8)) | IC50 (HLA-DR DRB1*0901 (DR9)) | IC50 (HLA-DR DRB1*1101 (DR11)) | IC50 (HLA-DR DRB1*1302 (DR13)) | IC50 (HLA-DR DRB1*1501 (DR15)) | IC50 (HLA-DR DRB3*0101 (DR52)) | IC50 (HLA-DR DRB4*0101 (DR53)) | IC50 (HLA-DR DRB1*0401 (DR4)) | IC50 (HLA-DR DRB5*0101 (DR51))
1 | CC(C)C[C@H](NC(=O)[C@H](CO)NC(=O)[C@H](CC(C)C)NC(=O)[C@H](CO)NC(=O)[C@H](C)NC(=O)[C@H](C)NC(=O)[C@H](CCCNC(=N)N)NC(=O)[C@H](C)NC(=O)[C@H](CC(C)C)NC(=O)[C@H](CC(C)C)NC(=O)[C@H](CC(C)C)NC(=O)[C@@H]1CCCN1C(=O)[C@H](C)N)C(=O)NCC(=O)N[C@@H](Cc1ccccc1)C(=O)O | 8.4 nM | 56300 nM | 59 nM | 76 nM | 124 nM | 322 nM | 12 nM | 91 nM | 13400 nM | 59 nM | – | –
2 | CSCC[C@H](NC(=O)CNC(=O)CNC(=O)[C@H](CCCNC(=N)N)NC(=O)[C@@H](NC(=O)[C@H](CCC(N)=O)NC(=O)[C@H](C)NC(=O)[C@@H](NC(=O)[C@@H](NC(=O)[C@H](CC(C)C)NC(=O)[C@H](Cc1c[nH]cn1)NC(=O)[C@H](Cc1ccc(O)cc1)NC(=O)[C@@H](N)CCCCN)[C@@H](C)O)C(C)C)C(C)C)C(=O)N[C@H](C(=O)N[C@@H](Cc1ccccc1)C(=O)O)C(C)C | 137 nM | 33700 nM | 228 nM | 1520 nM | 5860 nM | 859 nM | 193 nM | 1220 nM | > 21900 nM | – | 806 nM | 86 nM
3 | CSCC[C@H](NC(=O)[C@H](CC(C)C)NC(=O)[C@@H]1CCCN1C(=O)[C@@H](NC(=O)[C@H](CS)NC(=O)[C@H](CC(=O)O)NC(=O)[C@@H](NC(=O)[C@H](CCCNC(=N)N)NC(=O)[C@H](CC(C)C)NC(=O)[C@@H](NC(=O)[C@H](Cc1ccc(O)cc1)NC(=O)[C@@H](N)CC(N)=O)[C@@H](C)O)C(C)C)[C@@H](C)O)C(=O)N[C@@H](Cc1ccc(O)cc1)C(=O)N[C@@H](CO)C(=O)N[C@@H](CC(C)C)C(=O)O | 6800 nM | 45 nM | 24600 nM | 6320 nM | 48400 nM | 7120 nM | 9 nM | 5060 nM | 25 nM | – | 9.9 nM | 66700 nM
4 | CC[C@H](C)[C@H](NC(=O)[C@@H]1CCCN1)C(=O)N[C@@H](CC(C)C)C(=O)N[C@@H](CC(C)C)C(=O)N[C@@H](Cc1c[nH]c2ccccc12)C(=O)N[C@@H](CCC(N)=O)C(=O)N1CCC[C@H]1C(=O)N[C@H](C(=O)N1CCC[C@H]1C(=O)N[C@H](C(=O)N[C@@H](Cc1c[nH]cn1)C(=O)N[C@H](C(=O)N[C@H](C(=O)N1CCC[C@H]1C(=O)N[C@@H](CC(C)C)C(=O)O)C(C)C)[C@@H](C)O)C(C)C)[C@@H](C)CC | 44 nM | > 81800 nM | 46 nM | 21200 nM | 168 nM | 4040 nM | 567 nM | 6.9 nM | > 8830 nM | – | 258 nM | 41500 nM
5 | CC[C@H](C)[C@H](NC(=O)[C@H](Cc1c[nH]c2ccccc12)NC(=O)[C@@H](NC(=O)[C@@H](NC(=O)[C@H](CO)NC(=O)[C@H](CC(C)C)NC(=O)[C@@H](N)[C@@H](C)O)C(C)C)[C@@H](C)O)C(=O)NCC(=O)N[C@@H](C)C(=O)N[C@@H](C)C(=O)N1CCC[C@H]1C(=O)N[C@@H](CC(C)C)C(=O)N[C@H](C(=O)N[C@@H](CC(C)C)C(=O)N[C@@H](CO)C(=O)O)[C@@H](C)CC | 3.1 nM | > 81800 nM | 16 nM | 840 nM | 5.4 nM | 6860 nM | 642 nM | 97 nM | 6030 nM | – | – | 31 nM
